The numbers were not newly measured in publication PMC3910343 (Nephrology Dialysis Transplantation, 2013), which cites them from elsewhere.

Some results are limits rather than exact numbers.

For this series the following is noted: oral cinacalcet.

As for `C[C@@H](NCCCc1cccc(C(F)(F)F)c1)c1cccc2ccccc12` [cinacalcet], the initial half-life is roughly 6 h and the “time to steady state” value is no more than 7 days.
